Data on 23 compounds can be found in US8791266B2, “Thyroid hormone β receptor agonist” (Mitsubishi Tanabe Pharma Corporation, priority 2009, dated 2014).

The target in experiment [1] is T1, Human Thyroid Hormone Receptor β1 (TRβ1) (Homo sapiens, UniProt P10828).
T1 construct: expressed in transfected cells; host or cells: 293T cells
T1 sequence (P10828 1-461): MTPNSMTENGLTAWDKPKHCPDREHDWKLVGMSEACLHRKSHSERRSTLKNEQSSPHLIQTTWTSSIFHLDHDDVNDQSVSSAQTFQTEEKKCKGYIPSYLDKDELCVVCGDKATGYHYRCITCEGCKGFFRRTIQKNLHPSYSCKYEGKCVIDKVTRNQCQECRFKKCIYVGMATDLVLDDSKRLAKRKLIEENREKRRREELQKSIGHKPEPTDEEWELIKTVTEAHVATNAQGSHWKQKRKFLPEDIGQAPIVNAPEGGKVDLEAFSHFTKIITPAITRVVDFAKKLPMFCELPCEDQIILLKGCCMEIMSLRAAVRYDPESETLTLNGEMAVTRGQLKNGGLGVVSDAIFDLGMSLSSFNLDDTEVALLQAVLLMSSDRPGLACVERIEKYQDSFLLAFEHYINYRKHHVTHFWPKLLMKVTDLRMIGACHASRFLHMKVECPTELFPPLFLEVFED
Put plainly: Transcription activation test of human thyroid hormone receptor β1 (luciferase reporter in 293T cells). It counts as cell-based. Conditions: EC50 of transcription activation on TRβ1, 293T cells, luciferase activity after 24 hr; read-out: TRβ. From the text: (§1) Transcription Activation Test of Human Thyroid Hormone Receptors α1 (TRα1) and β1 (TRβ1)
(§2) pcDNA3.1 vector (manufactured by Invitrogen) that expresses TRα1 or β1 cloned from human liver-derived cells, and firefly luciferase expression vector pDR4-LuC (manufactured by Stratagene) having a thyroid hormone response sequence to be a reporter were transfected into 293T cells cultured in Dulbecco's modified Eagle medium (DMEM) containing 10% of activated carbon/dextran-treated fetal bovine serum (FBS) by using Lipofectamine2000 (manufactured by Invitrogen). After 16 hr, the cells were plated again in a 96 well plate, and the medium was exchanged with DMEM containing 0.1% activated carbon/dextran-treated FBS. After 3 more hr, a compound diluted with dimethyl sulfoxide solution was added, and the luciferase activity after 24 hr was measured.
(§3) As a positive control, 3,3′,5-triiodo-L-thyronine (T3), which is a biological ligand, was used. The transcription activation action of the compound on TRα1 and TRβ1 was shown by each EC50 value and the maximum luciferase activity value relative to the maximum luciferase activity value of T3 as 100.
For orientation: In a reporter assay the amount or activity of a reporter protein is the signal.

In experiment [2] the target is T2, Human Thyroid Hormone Receptor α1 (TRα1) (Homo sapiens, UniProt P10827).
T2 construct: expressed in transfected cells; host or cells: 293T cells
T2 sequence (P10827 1-410 isoform P10827-2): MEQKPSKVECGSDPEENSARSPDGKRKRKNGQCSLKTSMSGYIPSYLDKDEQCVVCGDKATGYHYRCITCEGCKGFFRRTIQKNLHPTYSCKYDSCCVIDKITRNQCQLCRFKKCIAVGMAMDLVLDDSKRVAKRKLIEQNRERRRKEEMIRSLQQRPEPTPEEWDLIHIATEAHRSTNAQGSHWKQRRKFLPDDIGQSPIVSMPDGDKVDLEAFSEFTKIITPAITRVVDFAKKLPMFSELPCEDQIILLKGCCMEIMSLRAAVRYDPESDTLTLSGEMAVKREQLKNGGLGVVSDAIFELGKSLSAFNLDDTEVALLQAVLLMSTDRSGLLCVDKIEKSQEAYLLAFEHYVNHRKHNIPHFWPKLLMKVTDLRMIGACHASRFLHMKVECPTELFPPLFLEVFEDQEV
Put plainly: Transcription activation test of human thyroid hormone receptor α1 (luciferase reporter in 293T cells). It counts as cell-based. Conditions: ratio TRα/TRβ of the transcription activation EC50 values.
Description: as §1, §2, §3

On to `Cc1cc(OCC(=O)O)cc(C)c1Cc1ccc(O)c(C(C)C)n1` [Example 1, {4-[(5-hydroxy-6-isopropylpyridin-2-yl)methyl]-3,5-dimethylphenoxy}acetic acid], for which the EC50 in experiment [1] was found to be 3 nM. Besides, the “selectivity (TRα/TRβ)” value in experiment [2] is reported as “B (2<(TRα/TRβ)<5)”.
With `Cc1cc(OCC(=O)O)cc(C)c1Cc1ccc(O)c(C2CCCCC2)n1` [Example 2, {4-[(6-cyclohexyl-5-hydroxypyridin-2-yl)methyl]-3,5-dimethylphenoxy}acetic acid], the EC50 in experiment [1] amounted to 2 nM. Besides, in experiment [2], the “selectivity (TRα/TRβ)” value is recorded as “B (2<(TRα/TRβ)<5)”.
Regarding `Cc1cc(OCC(=O)O)cc(C)c1Cc1ccc(O)c(-c2ccc3ccccc3c2)n1` [Example 3, (4-{[5-hydroxy-6-(2-naphthyl)pyridin-2-yl]methyl}-3,5-dimethylphenoxy)acetic acid], in experiment [1], the EC50 worked out at 20 nM. Moreover, in experiment [2], the “selectivity (TRα/TRβ)” value is “A (5<(TRα/TRβ))”.
As for `Cc1cc(OCC(=O)O)c(C)c(C)c1Cc1ccc(O)c(C(C)C)n1` [Example 4, {4-[(5-hydroxy-6-isopropylpyridin-2-yl)methyl]-2,3,5-trimethylphenoxy}acetic acid], the EC50 in experiment [1] came to 0.5 nM. Besides, the “selectivity (TRα/TRβ)” value in experiment [2] was “B (2<(TRα/TRβ)<5)”.
The like results for `Cc1cc(OCC(=O)O)c(C)c(C)c1Cc1ccc(O)c(C2CCCC2)n1` [Example 5, {4-[(6-cyclopentyl-5-hydroxypyridin-2-yl)methyl]-2,3,5-trimethylphenoxy}acetic acid] were, in that order, 0.5 nM and “A (5<(TRα/TRβ))”.
The like results for `Cc1cc(OCC(=O)O)c(C)c(C)c1Cc1ccc(O)c(C2CCCO2)n1` (stereo not shown) [Example 6, (4-{[5-hydroxy-6-(tetrahydrofuran-2-yl)pyridin-2-yl]methyl}-2,3,5-trimethylphenoxy)acetic acid] were, in that order, 50 nM and “B (2<(TRα/TRβ)<5)”.
With `Cc1cc(OCC(=O)O)c(C)c(C)c1Cc1ccc(O)c(C2CCCCC2)n1` [Example 7, {4-[(6-cyclohexyl-5-hydroxypyridin-2-yl)methyl]-2,3,5-trimethylphenoxy}acetic acid], in experiment [1], the EC50 was found to be 1 nM. In addition, the “selectivity (TRα/TRβ)” value in experiment [2] is listed as “A (5<(TRα/TRβ))”.
Consider `Cc1cc(OCC(=O)O)c(C)c(C)c1Cc1ccc(O)c(C2CCCCO2)n1` (stereo not shown) [Example 8, (4-{[5-hydroxy-6-(tetrahydro-2H-pyran-2-yl)pyridin-2-yl]methyl}-2,3,5-trimethylphenoxy)acetic acid], for which the EC50 in experiment [1] is 50 nM. Moreover, the “selectivity (TRα/TRβ)” value in experiment [2] is “A (5<(TRα/TRβ))”.
For `Cc1cc(OCC(=O)O)c(C)c(C)c1Oc1ccc(O)c(C(C)C)n1` [Example 9, {4-[(5-hydroxy-6-isopropylpyridin-2-yl)oxy]-2,3,5-trimethylphenoxy}acetic acid], in experiment [1], the EC50 was determined as 7 nM. For the same compound, the “selectivity (TRα/TRβ)” value in experiment [2] is reported as “C (2>(TRα/TRβ))”.
For `Cc1cc(OCC(=O)O)c(C)c(C)c1Oc1ccc(O)c(C2CCCCC2)n1` [Example 10, {4-[(6-cyclohexyl-5-hydroxypyridin-2-yl)oxy]-2,3,5-trimethylphenoxy}acetic acid] the same measures were 30 nM and “B (2<(TRα/TRβ)<5)”.
In the case of `Cc1cc(OCC(=O)O)c(F)c(C)c1Cc1ccc(O)c(C(C)C)n1` [Example 11, {2-fluoro-4-[(5-hydroxy-6-isopropylpyridin-2-yl)methyl]-3,5-dimethylphenoxy}acetic acid], the EC50 in experiment [1] was 1 nM. Further, the “selectivity (TRα/TRβ)” value in experiment [2] is on record as “B (2<(TRα/TRβ)<5)”.
The like results for `Cc1cc(OCC(=O)O)c(F)c(C)c1Cc1ccc(O)c(C2CCCCC2)n1` [Example 12, {4-[(6-cyclohexyl-5-hydroxypyridin-2-yl)methyl]-2-fluoro-3,5-dimethylphenoxy}acetic acid] were, in that order, 0.7 nM and “B (2<(TRα/TRβ)<5)”.
Turning to `Cc1cc(OCC(=O)O)c(Br)c(C)c1Cc1ccc(O)c(C2CCCCC2)n1` [Example 13, {2-bromo-4-[(6-cyclohexyl-5-hydroxypyridin-2-yl)methyl]-3,5-dimethylphenoxy}acetic acid], the EC50 in experiment [1] amounted to 0.3 nM. Further, in experiment [2], the “selectivity (TRα/TRβ)” value is “A (5<(TRα/TRβ))”.
The like results for `Cc1cc(OC(C)C(=O)O)cc(C)c1Cc1ccc(O)c(C2CCCCC2)n1` (stereo not shown) [Example 14, 2-{4-[(6-cyclohexyl-5-hydroxypyridin-2-yl)methyl]-3,5-dimethylphenoxy}propanoic acid] were, in that order, 10 nM and “B (2<(TRα/TRβ)<5)”.
On to `Cc1cc(OC(C)C(=O)O)c(C)c(C)c1Cc1ccc(O)c(C2CCCCC2)n1` (stereo not shown) [Example 15, 2-{4-[(6-cyclohexyl-5-hydroxypyridin-2-yl)methyl]-2,3,5-trimethylphenoxy}propanoic acid], for which the EC50 in experiment [1] is 9 nM. Further, in experiment [2], the “selectivity (TRα/TRβ)” value is given as “B (2<(TRα/TRβ)<5)”.
`Cc1cc(OC(C)(C)C(=O)O)cc(C)c1Cc1ccc(O)c(C2CCCCC2)n1` [Example 16, 2-{4-[(6-cyclohexyl-5-hydroxypyridin-2-yl)methyl]-3,5-dimethylphenoxy}-2-methylpropanoic acid]: the EC50 in experiment [1] worked out at 20 nM. The “selectivity (TRα/TRβ)” value in experiment [2] is recorded as “B (2<(TRα/TRβ)<5)”.
For `Cc1cc(OC(C)(C)C(=O)O)c(C)c(C)c1Cc1ccc(O)c(C2CCCCC2)n1` [Example 17, 2-{4-[(6-cyclohexyl-5-hydroxypyridin-2-yl)methyl]-2,3,5-trimethylphenoxy}-2-methylpropanoic acid] the same measures were 20 nM and “B (2<(TRα/TRβ)<5)”.
As for `Cc1cc(OC2(C(=O)O)CC2)cc(C)c1Cc1ccc(O)c(C2CCCCC2)n1` [Example 18, 1-{4-[(6-cyclohexyl-5-hydroxypyridin-2-yl)methyl]-3,5-dimethylphenoxy}cyclopropanecarboxylic acid], the EC50 in experiment [1] was 2000 nM. Besides, the “selectivity (TRα/TRβ)” value in experiment [2] is given as “C (2>(TRα/TRβ))”.
Turning to `Cc1cc(NC(=O)C(=O)O)cc(C)c1Cc1ccc(O)c(C2CCCCC2)n1` [Example 19, ({4-[(6-cyclohexyl-5-hydroxypyridin-2-yl)methyl]-3,5-dimethylphenyl}amino)(oxo)acetic acid], the EC50 in experiment [1] stood at 5 nM. Also, the “selectivity (TRα/TRβ)” value in experiment [2] was “B (2<(TRα/TRβ)<5)”.
Turning to `Cc1cc(NC(=O)C(=O)O)c(C)c(C)c1Cc1ccc(O)c(C2CCCCC2)n1` [Example 20, ({4-[(6-cyclohexyl-5-hydroxypyridin-2-yl)methyl]-2,3,5-trimethylphenyl}amino)(oxo)acetic acid], in experiment [1], the EC50 is 4 nM. Moreover, the “selectivity (TRα/TRβ)” value in experiment [2] is on record as “C (2>(TRα/TRβ))”.
As to `Cc1cc(NC(=O)CC(=O)O)cc(C)c1Cc1ccc(O)c(C(C)C)n1` [Example 21, 3-({4-[(5-hydroxy-6-isopropylpyridin-2-yl)methyl]-3,5-dimethylphenyl}amino)-3-oxopropanoic acid], the EC50 in experiment [1] came out at 30 nM. Further, the “selectivity (TRα/TRβ)” value in experiment [2] is “B (2<(TRα/TRβ)<5)”.
For `Cc1cc(NC(=O)CC(=O)O)cc(C)c1Cc1ccc(O)c(-c2ccccc2)n1` [Example 22, 3-({4-[(5-hydroxy-6-phenylpyridin-2-yl)methyl]-3,5-dimethylphenyl}amino)-3-oxopropanoic acid] the same measures were 200 nM and “A (5<(TRα/TRβ))”.
`Cc1cc(NC(=O)CC(=O)O)cc(C)c1Cc1ccc(O)c(C2CCCCC2)n1` [Example 23, 3-({4-[(6-cyclohexyl-5-hydroxypyridin-2-yl)methyl]-3,5-dimethylphenyl}amino)-3-oxopropanoic acid]: the EC50 in experiment [1] was found to be 10 nM. In addition, in experiment [2], the “selectivity (TRα/TRβ)” value is recorded as “A (5<(TRα/TRβ))”.
